ChEMBL document CHEMBL1154382, “Preliminary SAR analysis of novel antiproliferative N(6),5'-bis-ureidoadenosine derivatives” (2009)
Activity calls are given as the source filed them.

Columns and labels:
Assay type in all cases: functional
M14 = experiment: Antiproliferative activity against human M14 cells at 10 uM assessed as cell growth inhibition relative to control
SF-539 = experiment: Antiproliferative activity against human SF539 cells at 10 uM assessed as cell growth inhibition relative to control
SK-MEL-28 = experiment: Antiproliferative activity against human SK-MEL-28 cells at 10 uM assessed as cell growth inhibition relative to control
HCC 2998 = experiment: Antiproliferative activity against human HCC2998 cells at 10 uM assessed as cell growth inhibition relative to control
BT-549 = experiment: Antiproliferative activity against human BT549 cells at 10 uM assessed as cell growth inhibition relative to control
RPMI8266 = experiment: Antiproliferative activity against human […] cells at 10 uM assessed as cell growth inhibition relative to control
HCT-116 = experiment: Antiproliferative activity against human HCT116 cells at 10 uM assessed as cell growth inhibition relative to control
RXF 393 = experiment: Antiproliferative activity against human RXF393 cells at 10 uM assessed as cell growth inhibition relative to control
SW-620 = experiment: Antiproliferative activity against human SW620 cells at 10 uM assessed as cell growth inhibition relative to control
SN12C = experiment: Antiproliferative activity against human SN12C cells at 10 uM assessed as cell growth inhibition relative to control
NCI-H322M = experiment: Antiproliferative activity against human NCI-H322M cells at 10 uM assessed as cell growth inhibition relative to control
NCI-H460 = experiment: Antiproliferative activity against human NCI-H460 cells at 10 uM assessed as cell growth inhibition relative to control
A549 = experiment: Antiproliferative activity against human A549 cells at 10 uM assessed as cell growth inhibition relative to control
HT-29 = experiment: Antiproliferative activity against human HT-29 cells at 10 uM assessed as cell growth inhibition relative to control
UO-31 = experiment: Antiproliferative activity against human UO31 cells at 10 uM assessed as cell growth inhibition relative to control
DU-145 = experiment: Antiproliferative activity against human DU145 cells at 10 uM assessed as cell growth inhibition relative to control
COLO 205 = experiment: Antiproliferative activity against human COLO205 cells at 10 uM assessed as cell growth inhibition relative to control
HCT-15 = experiment: Antiproliferative activity against human HCT15 cells at 10 uM assessed as cell growth inhibition relative to control
OVCAR-4 = experiment: Antiproliferative activity against human OVCAR4 cells at 10 uM assessed as cell growth inhibition relative to control
786-0 = experiment: Antiproliferative activity against human 786-0 cells at 10 uM assessed as cell growth inhibition relative to control
Malme-3M = experiment: Antiproliferative activity against human MALME-3M cells at 10 uM assessed as cell growth inhibition relative to control
Hs-578T = experiment: Antiproliferative activity against human Hs 578T cells at 10 uM assessed as cell growth inhibition relative to control
NCI-H522 = experiment: Antiproliferative activity against human NCI-H522 cells at 10 uM assessed as cell growth inhibition relative to control
OVCAR-8 = experiment: Antiproliferative activity against human OVCAR8 cells at 10 uM assessed as cell growth inhibition relative to control
SK-MEL-5 = experiment: Antiproliferative activity against human SK-MEL-5 cells at 10 uM assessed as cell growth inhibition relative to control
UACC-62 = experiment: Antiproliferative activity against human UACC62 cells at 10 uM assessed as cell growth inhibition relative to control
HL-60(TB) = experiment: Antiproliferative activity against human HL-60(TB) cells at 10 uM assessed as cell growth inhibition relative to control
ACHN = experiment: Antiproliferative activity against human ACHN cells at 10 uM assessed as cell growth inhibition relative to control
PC-3 = experiment: Antiproliferative activity against human PC3 cells at 10 uM assessed as cell growth inhibition relative to control
SF-295 = experiment: Antiproliferative activity against human SF295 cells at 10 uM assessed as cell growth inhibition relative to control
HOP-92 = experiment: Antiproliferative activity against human HOP92 cells at 10 uM assessed as cell growth inhibition relative to control
KM12 = experiment: Antiproliferative activity against human KM12 cells at 10 uM assessed as cell growth inhibition relative to control
CCRF-CEM = experiment: Antiproliferative activity against human CCRF-CEM cells at 10 uM assessed as cell growth inhibition relative to control
TK-10 = experiment: Antiproliferative activity against human TK10 cells at 10 uM assessed as cell growth inhibition relative to control
NCI-H226 = experiment: Antiproliferative activity against human NCI-H226 cells at 10 uM assessed as cell growth inhibition relative to control
SK-OV-3 = experiment: Antiproliferative activity against human SKOV3 cells at 10 uM assessed as cell growth inhibition relative to control
MCF7 = experiment: Antiproliferative activity against human MCF7 cells at 10 uM assessed as cell growth inhibition relative to control
LOX IMVI = experiment: Antiproliferative activity against human LOXIMVI cells at 10 uM assessed as cell growth inhibition relative to control
IGROV-1 = experiment: Antiproliferative activity against human IGROV1 cells at 10 uM assessed as cell growth inhibition relative to control
UACC-257 = experiment: Antiproliferative activity against human UACC257 cells at 10 uM assessed as cell growth inhibition relative to control
EKVX = experiment: Antiproliferative activity against human EKVX cells at 10 uM assessed as cell growth inhibition relative to control
OVCAR-5 = experiment: Antiproliferative activity against human OVCAR5 cells at 10 uM assessed as cell growth inhibition relative to control
HOP-62 = experiment: Antiproliferative activity against human HOP62 cells at 10 uM assessed as cell growth inhibition relative to control
MDA-MB-231 = experiment: Antiproliferative activity against human MDA-MB-231 cells at 10 uM assessed as cell growth inhibition relative to control
U-251 = experiment: Antiproliferative activity against human U251 cells at 10 uM assessed as cell growth inhibition relative to control
OVCAR-3 = experiment: Antiproliferative activity against human OVCAR-3 cells at 10 uM assessed as cell growth inhibition relative to control
MDA-MB-468 = experiment: Antiproliferative activity against human MDA-MB-468 cells at 10 uM assessed as cell growth inhibition relative to control
A498 = experiment: Antiproliferative activity against human A498 cells at 10 uM assessed as cell growth inhibition relative to control
T47D = experiment: Antiproliferative activity against human T47D cells at 10 uM assessed as cell growth inhibition relative to control
MOLT-4 = experiment: Antiproliferative activity against human MOLT4 cells at 10 uM assessed as cell growth inhibition relative to control
SF-268 = experiment: Antiproliferative activity against human SF268 cells at 10 uM assessed as cell growth inhibition relative to control
SK-MEL-2 = experiment: Antiproliferative activity against human SK-MEL-2 cells at 10 uM assessed as cell growth inhibition relative to control
CAKI-1 = experiment: Antiproliferative activity against human Caki1 cells at 10 uM assessed as cell growth inhibition relative to control
NCI-H23 = experiment: Antiproliferative activity against human NCI-H23 cells at 10 uM assessed as cell growth inhibition relative to control
K562 = experiment: Antiproliferative activity against human K562 cells at 10 uM assessed as cell growth inhibition relative to control
SNB-19 = experiment: Antiproliferative activity against human SNB19 cells at 10 uM assessed as cell growth inhibition relative to control
SNB-75 = experiment: Antiproliferative activity against human SNB75 cells at 10 uM assessed as cell growth inhibition relative to control

Measured: growth inhibition (GI)

CNC(=O)NC[C@H]1O[C@@H](n2cnc3c(NC(=O)Nc4ccccc4)ncnc32)[C@@H]2OC(=O)C[C@@H]21
inactive: all assays above
